{"source": "ChEMBL document CHEMBL5380814", "about": "“Targeting Receptor-Interacting Protein Kinase 1 by Novel Benzothiazole Derivatives: Treatment of Acute Lung Injury through the Necroptosis Pathway” (J Med Chem, 2023)", "key": {"HT-29 [1]": {"test_system": "HT-29", "assay": "Anti-necroptotic activity in human HT-29 cells assessed as protection against human TNFalpha/cycloheximide/Z-VAD-FMK induced necroptosis preincubated with compound at 0.3 uM for 16 to 24 hrs followed by TCZ stimulation for 16 hrs measured by cell-titre glo luminescent cell viability assay relative to control", "type": "functional", "settings": "time 32-40 hrs"}, "[2]": {"biological_target": "Receptor-interacting serine/threonine-protein kinase 3 (Homo sapiens, UniProt Q9Y572)", "sequence (Q9Y572 whole entry, the tested form may be a part)": "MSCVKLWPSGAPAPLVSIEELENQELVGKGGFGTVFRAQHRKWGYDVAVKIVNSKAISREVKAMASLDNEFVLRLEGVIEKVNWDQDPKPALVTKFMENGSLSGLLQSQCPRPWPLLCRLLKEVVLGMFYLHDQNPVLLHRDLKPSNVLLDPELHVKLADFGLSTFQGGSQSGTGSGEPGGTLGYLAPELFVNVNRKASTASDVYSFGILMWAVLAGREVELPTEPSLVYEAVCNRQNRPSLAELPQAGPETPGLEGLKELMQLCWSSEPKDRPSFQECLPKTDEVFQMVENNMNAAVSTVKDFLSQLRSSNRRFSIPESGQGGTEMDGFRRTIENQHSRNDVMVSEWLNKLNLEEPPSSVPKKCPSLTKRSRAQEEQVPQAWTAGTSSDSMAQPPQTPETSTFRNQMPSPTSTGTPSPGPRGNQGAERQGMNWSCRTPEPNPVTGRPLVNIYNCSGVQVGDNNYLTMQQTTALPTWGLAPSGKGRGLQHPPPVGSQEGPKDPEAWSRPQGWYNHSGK", "assay": "Binding affinity to human wildtype full length RIPK3 (M1 to Q307 residues) expressed in bacterial expression system assessed as dissociation constant by kinome scan kd select based qPCR analysis"}, "Mus musculus [3]": {"test_system": "Mus musculus", "assay": "In vivo anti-inflammatory activity in NNK induced induced C57BL/6J ALI mouse model assessed as decrease in inflammatory cell infiltration pretreated at 25 to 100 mg/kg, ip for 1 hr followed by NNK administration by HE staining analysis", "type": "functional, organism-based", "settings": "dose 25-100 mg/kg"}, "HT-29 [4]": {"test_system": "HT-29", "assay": "Anti-necroptotic activity in human HT-29 cells assessed as protection against human TNFalpha/Smac mimetic induced necroptosis preincubated with compound upto 10 uM for 16 to 24 hrs followed by TS stimulation for 36 hrs measured by cell-titre glo luminescent cell viability assay", "type": "functional, cell-based", "settings": "time 52-60 hrs"}, "L929": {"test_system": "L929", "assay": "Anti-necroptotic activity in mouse L929 cells assessed as inhibition of mouse TNFalpha/Z-VAD-FMK induced necroptosis preincubated with compound for 16 to 24 hrs followed by TZ stimulation for 12 hrs measured by cell-titre glo luminescent cell viability assay", "type": "functional, cell-based", "settings": "dose 6.3-800 nM, time 28-36 hrs"}, "Mus musculus [5]": {"test_system": "Mus musculus", "assay": "In vivo anti-inflammatory activity in NNK induced induced C57BL/6J ALI mouse model assessed as decrease in bronchoalveolar lavage fluid (BALF) TNF-alpha level pretreated at 25 to 100 mg/kg, ip for 1 hr followed by NNK administration", "type": "functional, organism-based", "settings": "dose 25-100 mg/kg"}, "Mus musculus [6]": {"test_system": "Mus musculus", "assay": "In vivo anti-necrotptic activity in mTNFalpha induced C57BL/6J SIRS mouse model assessed as reduction in serum IL-1beta level pretreated at 5 to 20 mg/kg, po for 1 hr followed by mTNFalpha/Z-VAD-FMK administration measured after 3 hrs by ELISA analysis", "type": "functional, organism-based", "settings": "dose 5-20 mg/kg, time 4.0 hrs"}}, "note": "Calls of active or inactive are those of the source. The calls are words filed in the database; no cut-off is given here."}
{"smiles": "CCS(=O)(=O)NC1CCC(C(=O)Nc2nc3cc(F)c(Oc4ccc(F)c(NC(=O)Cc5cccc(C(F)(F)F)c5)c4)cc3s2)CC1", "note": "(configuration not stated)", "values": [{"measurement": "Activity", "setting": "HT-29 [1]", "value": ">50", "unit": "%"}, {"measurement": "Kd", "setting": "[2]", "value": "> 10", "unit": "µM"}, {"measurement": "Activity", "setting": "Mus musculus [3]", "value": "Active"}, {"measurement": "Activity", "setting": "HT-29 [4]", "value": "inactive"}, {"measurement": "Activity", "setting": "L929", "value": "Dose-Dependent Effect"}, {"measurement": "Activity", "setting": "Mus musculus [5]", "value": "Active"}, {"measurement": "Activity", "setting": "Mus musculus [6]", "value": "Active"}]}
